{"source": "patent US11730811B2", "about": "“Method for treating subject suffering from flavivirus infection” (priority 2017, dated 2023)", "tested_on": "human microvascular endothelial cells", "experiment": "in vitro transwell permeability assay (streptavidin-HRP leakage) with DENV NS1", "type": "cell-based", "details": "hyaluronidase 0.5 unit/mL to 50 units/mL added with DENV NS1 3 μg/ml for 6 hours; FIG. 6", "text": "Vascular leakage is an important feature in several diseases, such as septic shock, viral hemorrhagic fever, cancer metastasis and ischemia-reperfusion injuries. Thus, an in vitro endothelial permeability assay will provide insight into the establishment or progression of such diseases. The transwell permeability assays directly detect the penetration of a specific molecule, which can be detected by a spectrometer-based absorbance reader.\nThe permeability of human microvascular endothelial cells treated or not with DENV NS1 (3 μg/ml, Cat. No. ENZ-PRT105-0100, Enzo Life Sciences, Inc., NY, U.S.A.), was measured by an in vitro transwell permeability assay that mimics human endothelium in vivo (referring to http://www.bio-protocol.org/e2273). In brief, human microvascular endothelial cells (2×10^5) were grown in a 24-Transwell® (pore size: 0.4 μm, Cat. No. 3414; Corning, Kennebunk, Me., U.S.A.) for 5 days until a confluent monolayer was formed. […] Twenty microliters of medium, from each lower chamber, was transferred to a 96-well plate and analyzed for HRP activity by adding 100 μL 3,3′,5,5′-tetramethylbenzidine (TMB) substrate (Sigma-Aldrich, Cat. No. T4444, St. Louis, Mo., U.S.A.). Color development was detected by an EnSpire Multimode Reader (PerkinElmer, Upplands Väsby, Sweden) at 450 nm.", "data": [{"substance": "hyaluronidase", "values": [{"measurement": "DENV NS1-induced endothelial hyper-permeability", "value": "reverse the DENV NS1-induced endothelial hyper-permeability significantly"}]}]}
